Measured values taken from patent US9278994B2, “Short antimicrobial lipopeptides” (Helix BioMedix Inc., priority 2012, dated 2016).
In brackets after ≈: the same amount, converted by molar mass. Where a SMILES comes first, the peptide text is derived from it. [ ]: non-standard residue; d: D form. The star is where a group is joined. Stearoyl = CCCCCCCCCCCCCCCCCC(=O)*; Palmitoyl = CCCCCCCCCCCCCCCC(=O)*; Myristoyl = CCCCCCCCCCCCCC(=O)*; Decanoyl = CCCCCCCCCC(=O)*; Octanoyl = CCCCCCCC(=O)*

Assays:
C. albicans 105 = test system: C. albicans 105
Method: (§1) We conducted the minimal inhibitory concentration (MIC) determination using CLSI (Clinical and Laboratory standard Institute) recommended standard protocol for antimicrobials (Methods for Dilution Antimicrobial Susceptibility Tests for Bacteria That Grow Aerobically; Approved Standard—Ninth Edition).
(§2) 2. Bacterial strains and culture conditions. E. coli UB1005, S. aureus SAP0017 (MRSA) and C. albicans 105 were grown in Mueller Hinton (MH) (Difco, BD Biosciences, MD) agar plates and broth (2 g of beef extract, 17.5 g of acid hydrolysis of casein and 1.5 g of starch per liter) at 37° C. unless otherwise indicated. Bacteria from frozen stock were subcultured onto freshly made MH agar plates prior to susceptibility testing. For P. acnes, the bacterium was grown in BBL™ Brain-Heart infusion (Becton, Dickinson & Company, Sparks Md.) broth or agar plates at 37° C. in anaerobic condition generated using a anaerobic jar and AnaeroGen™ (Oxoid, Basingstoke, Hampshire, England).
(§3) 3. […] The minimal inhibitory concentration (MIC) of each peptide was determined using modified CLSI microtiter broth dilution assay (Methods for Dilution Antimicrobial Susceptibility Tests for Bacteria That Grow Aerobically; Approved Standard—Ninth Edition). An inoculum of 10^5-10^6 colony forming units (CFU)/ml was used or 10^4 CFU/ml for yeast. The MIC value was taken as the lowest peptide concentration at which more than 90% of microbial growth was inhibited after 15 to 20 h of incubation at 37° C. For P. acnes, the incubation was kept under anaerobic condition at 37° C. for 2 weeks before MIC was determined Kill kinetics was performed using a given concentration (about 2-5-fold MIC) of peptide mixed with indicator microorganism. After appropriate dilution the cells were plated on agar plates after defined time intervals and incubated at 37° C. overnight. In the case of P. acnes an extended incubation period was required. The CFU was counted and plotted as survival of bacteria after peptide treatment over time, which indicates the effectiveness of a peptide to kill a microbe.

E. coli UB1005 = test system: E. coli UB1005
Method: as §1, §2, §3

S. aureus SAP0017 (MRSA) = test system: S. aureus SAP0017 (MRSA)
Method: as §1, §2, §3

P. acnes = format: cell-based, Propionibacterium acnes
Method: as §2, §3

[1] = test system: P. acnes, S. aureus, E. coli and C. albicans; test: MIC / antimicrobial activity; format: cell-based; conditions: summary of MIC results of Table 1
Method: as §2, §3

Structure (SMILES)	MIC C. albicans (C. albicans 105)	MIC E. coli (E. coli UB1005)	MIC S. aureus (S. aureus SAP0017 (MRSA))	MIC P. acnes (P. acnes)	antimicrobial activity (in words) [1]
CCCCCCCCCCCCCCCC(=O)N[C@@H](CCCCN)C(=O)N[C@H](C(N)=O)[C@@H](C)CC [HB2246, Pal-KI-NH2]	>2000 µg/mL	>2000 µg/mL	128 µg/mL (≈ 0.258 mM)	>2000 µg/mL	more Gram-positive selective activity
CCCCCCCCCCCCCCCC(=O)N[C@@H](CCCCN)C(=O)N[C@@H](CC(C)C)C(N)=O [HB2244, Pal-KL-NH2] (Palmitoyl-Lys-Leu-NH2)	>2000 µg/mL	>2000 µg/mL	250 µg/mL (≈ 0.503 mM)	8 µg/mL (≈ 0.0161 mM)	more Gram-positive selective activity
CCCCCCCCCCCCCCCC(=O)N1CCC[C@H]1C(=O)N[C@@H](CCCCN)C(=O)O [HB2255, Pal-PK-OH] (Palmitoyl-Pro-Lys-OH)	>2000 µg/mL	>2000 µg/mL	>2000 µg/mL	>2000 µg/mL	inactive
CCCCCCCCCCCCCCCC(=O)N[C@@H](CCCCN)C(=O)N1CCC[C@H]1C(=O)N[C@H](C(=O)O)C(C)C [HB2184, Pal-KPV-OH] (Palmitoyl-Lys-Pro-Val-OH)	>2000 µg/mL	>2000 µg/mL	>2000 µg/mL	8 µg/mL (≈ 0.0138 mM)	less active or inactive
CCCCCCCCCCCCCCCC(=O)N[C@@H](CCCCN)C(=O)N1CCC[C@@H]1C(=O)N[C@H](C(=O)O)[C@@H](C)O [HB2182, Pal-KdPT-OH] (Palmitoyl-Lys-[dP]-Thr-OH)	>2000 µg/mL	>2000 µg/mL	>2000 µg/mL	32 µg/mL (≈ 0.0549 mM)	less active or inactive
CCCCCCCCCCCCCCCC(=O)N[C@@H](CCCCN)C(=O)N1CCC[C@H]1C(=O)O [HB2257, Pal-KP-OH] (Palmitoyl-Lys-Pro-OH)	>2000 µg/mL	>2000 µg/mL	>2000 µg/mL	>2000 µg/mL	inactive
CCCCCCCCCC(=O)N[C@@H](CCCCN)C(=O)N1CCC[C@@H]1C(=O)N[C@H](C(=O)O)[C@@H](C)O [HB2183, Dec-KdPT-OH] (Decanoyl-Lys-[dP]-Thr-OH)	>2000 µg/mL	>2000 µg/mL	>2000 µg/mL	>2000 µg/mL	–
CCCCCCCCCCCCCCC(=O)N[C@@H](CCCCN)C(=O)N1CCC[C@H]1C(=O)N[C@H](C(N)=O)C(C)C [HB2192, Pentadecanoyl-KPV-NH2]	32 µg/mL (≈ 0.0566 mM)	64 µg/mL (≈ 0.113 mM)	16 µg/mL (≈ 0.0283 mM)	1 µg/mL (≈ 0.00177 mM)	–
CCCCCCCCCC(=O)N[C@@H](CCCCN)C(=O)N1CCC[C@H]1C(=O)N[C@H](C(N)=O)C(C)C [HB2181, Dec-KPV-NH2] (Decanoyl-Lys-Pro-Val-NH2)	>2000 µg/mL	>2000 µg/mL	>2000 µg/mL	1000 µg/mL (≈ 2.02 mM)	–
CCCCCCCCCCCCCCCCCC(=O)N[C@@H](CCCCN)C(=O)N1CCC[C@@H]1C(=O)N[C@H](C(N)=O)[C@@H](C)O [HB2201, Stearoyl-K-dPT-NH2] (Stearoyl-Lys-[dP]-Thr-NH2)	8 µg/mL (≈ 0.0131 mM)	128 µg/mL (≈ 0.21 mM)	16 µg/mL (≈ 0.0262 mM)	1 to 2 µg/mL	–
CCCCCCCCCCCCCCCC(=O)N[C@@H](CCCCN)C(=O)N[C@@H](C)C(N)=O [HB2240, Pal-KA-NH2] (Palmitoyl-Lys-Ala-NH2)	>2000 µg/mL	>2000 µg/mL	>2000 µg/mL	>2000 µg/mL	–
CCCCCCCCCCCCCCCCCC(=O)N[C@@H](CCCCN)C(=O)N1CCC[C@H]1C(=O)N[C@H](C(N)=O)C(C)C [HB2194, Stearoyl-KPV-NH2] (Stearoyl-Lys-Pro-Val-NH2)	16 µg/mL (≈ 0.0263 mM)	>2000 µg/mL	16 µg/mL (≈ 0.0263 mM)	1 to 2 µg/mL	–
CCCCCCCC(=O)N[C@@H](CCCCN)C(=O)N1CCC[C@@H]1C(=O)N[C@H](C(N)=O)[C@@H](C)O [HB2195, Octanoyl-KdPT-NH2] (Octanoyl-Lys-[dP]-Thr-NH2)	>2000 µg/mL	>2000 µg/mL	>2000 µg/mL	>2000 µg/mL	–
CCCCCCCCCCCCCCCC(=O)N[C@@H](CCCCN)C(=O)N[C@@H](CCCNC(=N)N)C(=O)O [HB2253, Pal-KR-OH] (Palmitoyl-Lys-Arg-OH)	32 µg/mL (≈ 0.0592 mM)	500 µg/mL (≈ 0.925 mM)	16 µg/mL (≈ 0.0296 mM)	2 to 4 µg/mL	broad spectrum antimicrobial activity
CCCCCCCCCCCCCCCC(=O)N[C@@H](CCCCN)C(=O)NCC(N)=O [HB2243, Pal-KG-NH2] (Palmitoyl-Lys-Gly-NH2)	>2000 µg/mL	>2000 µg/mL	250 µg/mL (≈ 0.567 mM)	32 to 64 µg/mL	more Gram-positive selective activity
CCCCCCCCCCCCCC(=O)N[C@@H](CCCCN)C(=O)N1CCC[C@@H]1C(=O)N[C@H](C(N)=O)[C@@H](C)O [HB2198, Myristoyl-KdPT-NH2] (Myristoyl-Lys-[dP]-Thr-NH2)	64 µg/mL (≈ 0.116 mM)	128 µg/mL (≈ 0.231 mM)	64 µg/mL (≈ 0.116 mM)	8 to 16 µg/mL	–
